# Measurements taken from PMC12040969, “Design, synthesis, in silico studies, and apoptotic antiproliferative activity of novel thiazole-2-acetamide derivatives as tubulin polymerization inhibitors” (Frontiers in Chemistry, 2025).
# “And” between values parts separate entries of the source, which are not always exact repeats. Identical values can stand only once.
# Tests used:
# [1] = tested on: Bax in MDAMB-231 cancer cell line; test: Bax level assay; type: cell-based, human; details: MDAMB-231 cells
# Description: (§1) […]. Supplementary Appendix A provides more information.
# [2] = tested on: Caspase-9 in MDAMB-231 cancer cell line; test: Caspase-9 activation assay; type: cell-based, human; details: MDAMB-231 cells
# Experimental: […]. Compound 10o was the least efficient derivative as caspase-9 activators (0.90 ng/mL).
# as §1
# [3] = tested on: Caspase-3 in MDAMB-231 cancer cell line; test: Caspase-3 activation assay; type: cell-based, human; details: MDAMB-231 cells
# Description: as §1
# [4] = tested on: Bcl-2 in MDAMB-231 cancer cell line; test: Bcl-2 level assay; type: cell-based, human; details: MDAMB-231 cells
# Description: as §1
# tubulin = test: Tubulin polymerization inhibition assay (Cytoskeleton kit);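 as to all read-outs here: Cell-free tubulin polymerization read by fluorescent reporter enhancement over a 30 min reaction, with the compound-free kit control taken as 100% activity and inhibition relative to it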; details: for Tub %inh / Tub. enzyme inhibition assay %inhibition: 30 min; for Tub %inh: YB-EGY run; for Tub K.Activity: EC = 120, YB-EGY run; for Tub. enzyme inhibition assay %inhibition: codes 522-537 run; for Tub. enzyme inhibition assay K. Activity: control = 120, codes 522-537 run
# breast - MCF-7 = test: Antiproliferative assay (MTT) MCF-7; details: for IC50: read-out: Antiproliferative activity IC50 ± SEM (µM) MCF-7, MCF-7, MTT
# colon - HCT-116 = test: Antiproliferative assay (MTT) HCT-116; details: for IC50: read-out: Antiproliferative activity IC50 ± SEM (µM) HCT-116, HCT-116, MTT
# [5] = Cell viability assay (MTT), normal cells; type: cell-based; details: human, MCF-10A normal mammary gland epithelial cells, four-day incubation
# prostatic - PC-3 = test: Antiproliferative assay (MTT) PC-3; details: for IC50: read-out: Antiproliferative activity IC50 ± SEM (µM) PC-3, PC-3, MTT
# [6] = tested on: four human cancer cell lines (HCT-116, PC-3, MCF-7, MDAMB-231); test: Antiproliferative assay, mean of four cell lines (GI50)
# - MDAMB-231 = test: Antiproliferative assay (MTT) MDAMB-231
# pancreatic - MDAMB-231 = test: Antiproliferative assay (MTT) MDAMB-231; details: read-out: Antiproliferative activity IC50 ± SEM (µM) MDAMB-231; MDAMB-231, MTT
compound,measurement,setting,value
"CN[C@@H]1C[C@H]2O[C@@](C)([C@@H]1OC)n1c3ccccc3c3c4c(c5c6ccccc6n2c5c31)C(=O)NC4 [Staurosporine, reference compound]",Bax Conc,[1],280 ± 7 pg/mL
same,Bax Fold change,[1]; relative to untreated control,35 fold
same,Bax Conc,[1]; listed as staurosporine,280 pg/mL
same,Caspase-9 Conc,[2],1.30 ± 0.10 ng/mL
same,Caspase-9 Fold change,[2]; relative to untreated control,13 fold
same,Caspase-9 Conc,[2]; listed as staurosporine,1.30 ng/mL
same,Caspase-3 Conc,[3],510 ± 4 pg/mL
same,Caspase-3 Fold change,[3]; relative to untreated control,8 fold
same,Bcl-2 Conc,[4],1.10 ng/mL
same,Bcl-2 Fold reduction,[4]; relative to untreated control,5 fold
"Cc1nc(SCC(=O)Nc2nc(-c3ccccc3)cs2)sc1C(=O)/C=C/c1ccccc1 [Compound 10a, (E)-2-((5-cinnamoyl-4-methylthiazol-2-yl)thio)-N-(4-phenylthiazol-2-yl)acetamide]",Bax Conc,[1],305 pg/mL and 305 ± 8 pg/mL
same,Tub %inh,tubulin; conc 0.1 (unit not given),16.5%
same,Tub K.Activity,tubulin; conc 0.1 (unit not given),100.18
same,Tub %inh,tubulin; conc 1 (unit not given),39.4%
same,Tub K.Activity,tubulin; conc 1 (unit not given),72.71
same,Tub %inh,tubulin; conc 10 (unit not given),60.5%
same,Tub K.Activity,tubulin; conc 10 (unit not given),47.391
same,Tub %inh,tubulin; conc 50 (unit not given),78.9%
same,Tub K.Activity,tubulin; conc 50 (unit not given),25.374
same,Tub %inh,tubulin; conc 100 (unit not given),92.7%
same,Tub K.Activity,tubulin; conc 100 (unit not given),8.7594
same,IC50,breast - MCF-7,4 ± 0.2 µM
same,Caspase-9 Conc,[2],1.60 ng/mL and 1.60 ± 0.10 ng/mL
same,Caspase-3 Conc,[3],625 ± 5 pg/mL
same,Bcl-2 Conc,[4],0.90 ng/mL
same,IC50,colon - HCT-116,8 ± 0.7 µM
same,"viability at 96 h, 50 µM",[5],87%
same,"Higher efficacy than sorafenib, PC-3",prostatic - PC-3; PC-3 prostate cancer cell line,1.7 fold
same,IC50,prostatic - PC-3,7 ± 0.6 µM
"Cc1nc(SCC(=O)Nc2nc(-c3ccc(Cl)cc3)cs2)sc1C(=O)/C=C/c1ccccc1 [Compound 10f, (E)-N-(4-(4-chlorophenyl)thiazol-2-yl)-2-((5-cinnamoyl-4-methylthiazol-2-yl)thio) acetamide]",Tub. enzyme inhibition assay %inhibition,tubulin; conc 0.01 (unit not given),5.23%
same,Tub. enzyme inhibition assay K. Activity,tubulin; conc 0.01 (unit not given),113.72
same,Tub. enzyme inhibition assay %inhibition,tubulin; conc 0.1 (unit not given),15.6%
same,Tub. enzyme inhibition assay K. Activity,tubulin; conc 0.1 (unit not given),101.33
same,Tub. enzyme inhibition assay %inhibition,tubulin; conc 1 (unit not given),34.8%
same,Tub. enzyme inhibition assay K. Activity,tubulin; conc 1 (unit not given),78.182
same,Tub. enzyme inhibition assay %inhibition,tubulin; conc 10 (unit not given),58.9%
same,Tub. enzyme inhibition assay K. Activity,tubulin; conc 10 (unit not given),49.376
same,Tub. enzyme inhibition assay %inhibition,tubulin; conc 100 (unit not given),87.6%
same,Tub. enzyme inhibition assay K. Activity,tubulin; conc 100 (unit not given),14.884
same,IC50,"tubulin; read-out: Tubulin inhibition IC50 ± SEM, triplicate for each tested concentration",5.62 ± 0.17 µM
same,Tub. (IC50) IC50±SD,"tubulin; supplement raw data, lab codes",2.88 ± 0.09 µg/mL
same,Average of Relative viability of cells (%),"breast - MCF-7; MCF-7, 1.56 µM",100%
same,Average of Relative viability of cells (%),"breast - MCF-7; MCF-7, 3.125 µM",84.7%
same,Average of Relative viability of cells (%),"breast - MCF-7; MCF-7, 6.25 µM",68.3%
same,Average of Relative viability of cells (%),"breast - MCF-7; MCF-7, 12.5 µM",41.9%
same,Average of Relative viability of cells (%),"breast - MCF-7; MCF-7, 25 µM",33.5%
same,Average of Relative viability of cells (%),"breast - MCF-7; MCF-7, 50 µM",27.4%
same,Average of Relative viability of cells (%),"breast - MCF-7; MCF-7, 100 µM",19.2%
same,IC50,breast - MCF-7,14 ± 1.1 µM
same,Reduced potency compared to doxorubicin (GI50),[6]; GI50 ratio,at least 2.5 fold
same,Reduced potency compared to sorafenib (GI50),[6]; GI50 ratio,≥ 1.5 fold
same,IC50,"[6]; Homo sapiens, read-out: GI50 (average IC50)",18 µM
same,Average of Relative viability of cells (%),"- MDAMB-231; MDAMB-231, 1.56 µM",96.1%
same,Average of Relative viability of cells (%),"- MDAMB-231; MDAMB-231, 3.125 µM",79.5%
same,Average of Relative viability of cells (%),"- MDAMB-231; MDAMB-231, 6.25 µM",63.2%
same,Average of Relative viability of cells (%),"- MDAMB-231; MDAMB-231, 12.5 µM",38.7%
same,Average of Relative viability of cells (%),"- MDAMB-231; MDAMB-231, 25 µM",27.4%
same,Average of Relative viability of cells (%),"- MDAMB-231; MDAMB-231, 50 µM",17.8%
same,Average of Relative viability of cells (%),"- MDAMB-231; MDAMB-231, 100 µM",14.3%
same,IC50,pancreatic - MDAMB-231,10 ± 0.9 µM
same,Average of Relative viability of cells (%),"colon - HCT-116; HCT-116, 1.56 µM",100%
same,Average of Relative viability of cells (%),"colon - HCT-116; HCT-116, 3.125 µM",90.2%
same,Average of Relative viability of cells (%),"colon - HCT-116; HCT-116, 6.25 µM",71.1%
same,Average of Relative viability of cells (%),"colon - HCT-116; HCT-116, 12.5 µM",63.4%
same,Average of Relative viability of cells (%),"colon - HCT-116; HCT-116, 25 µM",50.5%
same,Average of Relative viability of cells (%),"colon - HCT-116; HCT-116, 50 µM",35.7%
same,Average of Relative viability of cells (%),"colon - HCT-116; HCT-116, 100 µM",23.6%
same,IC50,colon - HCT-116,25 ± 1.8 µM
same,"viability at 96 h, 50 µM",[5],86%
same,Average of Relative viability of cells (%),"prostatic - PC-3; PC-3, 1.56 µM",100%
same,Average of Relative viability of cells (%),"prostatic - PC-3; PC-3, 3.125 µM",91.8%
same,Average of Relative viability of cells (%),"prostatic - PC-3; PC-3, 6.25 µM",70.5%
same,Average of Relative viability of cells (%),"prostatic - PC-3; PC-3, 12.5 µM",58.2%
same,Average of Relative viability of cells (%),"prostatic - PC-3; PC-3, 25 µM",46.7%
same,Average of Relative viability of cells (%),"prostatic - PC-3; PC-3, 50 µM",32.3%
same,Average of Relative viability of cells (%),"prostatic - PC-3; PC-3, 100 µM",24.2%
same,IC50,prostatic - PC-3,22 ± 1.6 µM
